According to ChEMBL document CHEMBL3507680, “University of Dundee, Gates Library screen for HepG2 cell viability”:

Experiment: Human HepG2 cell viability assay in 384 well format
Assay type: toxicity, cell-based
Parameters: dose 125 nL, time 70.5 hour; concentration not given beside the values
Settings: HepG2 cells, read-out: Inhibition

In order of rising cytotoxicity at 70.5 h:
1. CN(Cc1cccc(F)c1)C(=O)c1ccncc1Cl  -18.9%
2. O=C(c1ccncc1)N1C[C@@H]2CCN(c3cccnc3)C[C@@H]2C1  -16.9%
3. CCN(C)c1ccc(CNS(=O)(=O)CC2CCCO2)cc1F (stereo not drawn)  -16%
4. O=C1[C@@H]2CCN(C3CCOCC3)C[C@@H]2OCCN1Cc1cccnc1  -16%
5. COCCNC(=O)[C@H]1CN(c2ncccn2)C[C@H]2OCC[C@@H]12  -15.6%
6. COCCNC(=O)C1CN(Cc2ccncc2)Cc2ccnn2C1 (stereo not drawn)  -14.1%
7. CSCc1noc(C2CCC(=O)N(CCc3ccccc3)C2)n1 (stereo not drawn)  -13.9%
8. Cc1cccc(CN2CCc3ncnc(-c4ccsc4)c3CC2)n1  -13.6%
9. O=C(O)c1cc2c(nc1-c1ccoc1)CCN(CC1CCOC1)CC2 (stereo not drawn)  -13.1%
10. COCC1CN(Cc2ccncc2)Cc2nn(CC3CC3)cc21 (stereo not drawn)  -12.8%
11. COc1ccc(-c2nc(CNC(C)Cn3cccn3)cs2)cc1 (stereo not drawn)  -12.5%
12. Cc1ccc(N2C[C@H]3OCC[C@H]3[C@H](C(=O)NCC3CC3)C2)nn1  -12.5%
13. CC(C)[C@H](Nc1nc(C2CCCC2)nc2c1cnn2C)C(N)=O  -12.3%
14. CC(C)OCc1ncn2c1CN(Cc1ccoc1)CCC2  -11.8%
15. CCC(C)N(Cc1sccc1C)C(=O)c1ccc2cccnc2n1 (stereo not drawn)  -11.7%
16. Cc1ccc(N2C[C@H](C(=O)N3CCOCC3)[C@@H]3CCO[C@@H]3C2)nn1  -11.3%
17. Cn1cnc2c1C(COCC1CCOCC1)CN(c1ncccn1)C2 (stereo not drawn)  -11.3%
18. CO[C@@H]1CCN(Cc2nccs2)C[C@@H]1Cc1ccccc1  -11.2%
19. COc1ccc(CCn2ccnc2-c2cc3n(n2)CCCNC3)cc1  -10.7%
20. Cc1ncsc1CCC(=O)N1CCN(CCn2cncn2)CC1  -10.7%
21. CC(C)=CCCC1(C)CCC(=O)N(CCNc2nc(C)cc(=O)[nH]2)C1 (stereo not drawn)  -10.3%
22. c1ccc(CCN2C[C@@H]3OCCN(c4ncccn4)[C@@H]3C2)cc1  -9.92%
23. O=C1CC(c2ccncc2)C2(CCN(C(=O)c3cccc(F)c3)CC2)N1 (stereo not drawn)  -9.17%
24. Cc1cccc(CN2C(=O)CC[C@@H]3[C@H]2CCN3Cc2nccn2C)n1  -9.05%
25. CCS(=O)(=O)N1CCC2(CN(c3cccc(F)c3)C(=O)CN2C)C1 (stereo not drawn)  -8.93%
26. O=C1[C@H]2CN(Cc3ccoc3)C[C@@H]2CCN1Cc1cccnc1  -8.89%
27. COc1ccc(CN2CCn3cc(CNC(=O)CC4CC4)nc3C2)cc1  -8.89%
28. CC1=C(CCN2C[C@H](O)[C@@H](N3CCOCC3)C2)C(C)(C)CCC1  -8.76%
29. CN(C)C(=O)N1CC2(CCNCC2)c2cc(F)ccc21  -8.45%
30. c1cnc(N2CCCC3(CCN(CC4CCC4)C3)C2)nc1 (stereo not drawn)  -8.21%
31. O=C(CSCC1CC1)N1C[C@@H]2CC[C@H](C1)N(Cc1ccccn1)C2=O  -8.12%
32. COCC(=O)N1C[C@H]2CN(Cc3csc(C)n3)C(=O)[C@H]2C1  -8.09%
33. O=C(c1ccco1)N1CCc2c(COCC3CC3)cncc2C1  -8.01%
34. Cn1c(Cn2ccnc2)nnc1C1CCN(C(=O)c2ccoc2)CC1  -7.81%
35. Cn1cc(NC(=O)c2ccccn2)cc(Cl)c1=O  -7.7%
36. O=C(O)c1ccc(S(=O)(=O)Nc2cccc(CC(F)(F)F)c2)c(F)c1  -7.64%
37. O=C(NCCc1nnc2n1CCCCC2)N1CCC2(CCCC2)CC1  -7.24%
38. Cn1cc(CN2CCn3cc(CNC(=O)CC4CC4)nc3C2)cn1  -7.17%
39. CN(C)C(=O)[C@H]1C[C@H]2OCC[C@H]2N(Cc2ccc(F)cc2)C1  -7.16%
40. c1cncc(CN2CCO[C@@H]3CN(Cc4ccoc4)CC[C@@H]3C2)c1  -7.13%
41. Cc1ccccc1[C@@H]1CN(CCOCCO)C[C@H]1C(=O)O  -6.95%
42. CCCOC1CCCN(C(=O)Cn2cccc(C(F)(F)F)c2=O)C1 (stereo not drawn)  -6.8%
43. Cc1cccnc1CN1CCN(C[C@]2(O)CCCN3CCCC[C@@H]32)CC1  -6.65%
44. CN(C)CC(=O)N1Cc2ncn(C)c2C(COCC2CCOCC2)C1 (stereo not drawn)  -6.48%
45. COCCNC(=O)C1CN(Cc2nccs2)Cc2ccnn2C1 (stereo not drawn)  -6.42%
46. CC(C)CC(C)N(C)C(=O)CCn1cccn1 (stereo not drawn)  -6.33%
47. CN(C)C(=O)[C@H]1C[C@@H]2CN(S(=O)(=O)c3ccccc3)C[C@H]1O2  -6.1%
48. COCCC(=O)N1CCCC(CCC(=O)Nc2ccc(Cl)cc2)C1 (stereo not drawn)  -6.03%
49. CCCn1nnnc1CN(c1ccc(C)cc1)C(C)C  -5.93%
50. O=C(c1csc2nc(-c3ccc(Cl)cc3)cn12)N1CCCC(CO)C1 (stereo not drawn)  -5.49%
51. NC(=O)c1cncc(N2CCN(Cc3cccc4nsnc34)CC2)n1  -5.47%
52. c1ccc(CN2CCc3ncnc(-c4ccoc4)c3CC2)nc1  -5.45%
53. Cn1cc(NC(=O)c2cc[nH]n2)cc(Cl)c1=O  -5.18%
54. COCCNC(=O)C1CN(Cc2cccc(C)n2)Cc2ccnn2C1 (stereo not drawn)  -5.1%
55. O=C(COCc1ccccc1Cl)N1CCN(c2ccc(Br)cn2)CC1  -4.89%
56. Cc1cccc(C(=O)N2CCn3cc(CNC(=O)CC4CC4)nc3C2)n1  -4.69%
57. Cc1nc2c(c(NC3CC3)n1)CCN(C(=O)CCO)CC2  -4.49%
58. CCOc1ccc2[nH]c(=O)c(CN3CCC(N4CCCC4)CC3)cc2c1  -4.41%
59. CN(Cc1cccc(OC(F)(F)F)c1)C(=O)c1ccncc1F  -4.4%
60. CCOC(=O)CNc1nc(COC)nc2c1cnn2C  -4.25%
61. CCc1nc(C)sc1C(=O)N1CCN(c2ncccc2C)CC1  -4.24%
62. CO[C@@H]1CCN(S(=O)(=O)c2cccs2)[C@H]1Cc1cccnc1  -4.13%
63. Cn1ncc2c1C(COCC1CC1)CN(S(=O)(=O)C1CC1)C2 (stereo not drawn)  -4.08%
64. Cn1ccc(C(=O)NC2CCC23CCN(C(=O)c2ccccn2)CC3)c1 (stereo not drawn)  -4.01%
65. Cc1cc(C)n(CC2CCCN2C(=O)Cc2cn3ccccc3n2)n1 (stereo not drawn)  -3.71%
66. Cc1nc(CC(=O)N2CCCN(c3ccc(F)cc3)CC2)cs1  -3.38%
67. Cc1noc([C@H]2C[C@H]3OCC[C@H]3N(Cc3cccs3)C2)n1  -3.05%
68. CN(C)C(=O)NC1COC2(CCN(Cc3ccc(N(C)C)cc3)CC2)C1 (stereo not drawn)  -2.99%
69. CN1CC(=O)N(c2cccc(F)c2)CC12CCN(S(=O)(=O)C1CC1)C2 (stereo not drawn)  -2.84%
70. CCC[C@H]1CN(C2CCOCC2)C[C@@H]1NC(=O)CCCn1ccnc1  -2.79%
71. Cc1nc(C)c(-c2nnc(SCC(=O)O)n2C(C)c2ccccc2)o1 (stereo not drawn)  -2.71%
72. Cc1ccsc1[C@@H]1CCN(C(=O)Cc2ccc(O)cc2)C[C@H]1O  -2.32%
73. Cc1nc(CN2C[C@@H]3CN(C(=O)C4(C#N)CC4)C[C@@H]3C2=O)cs1  -2.26%
74. COCC(=O)NCc1cc2n(n1)CCCN(CCCC1CCCC1)C2  -2.24%
75. CC(C)CN1C[C@@H](C(=O)O)C[C@@H](C(=O)NCc2ccncc2)C1  -2.12%
76. c1cnn(CCNCc2csc(-c3ccc4c(c3)OCO4)n2)c1  -1.83%
77. Cc1occc1C(=O)N1CCc2c(CNc3ncccn3)cncc2C1  -1.28%
78. CN(Cc1cc(C2CC2)on1)C(=O)C(c1cccnc1)N1CCCC1 (stereo not drawn)  -1.03%
79. O=C(NCCc1nnc2n1CCC2)N1CCC2(CCCCC2)C1  -0.937%
80. Cc1cccc(OC2CCN(C(=O)CNC(=O)N(C)C)CC2)c1  -0.834%
81. Cc1cccc(CN2C(=O)CC[C@@H]3[C@H]2CCN3Cc2cccnc2)n1  -0.831%
82. Cc1cc(CN2CCc3c(CNc4ncccn4)cncc3C2)oc1C  -0.479%
83. O=C(Cc1ccccc1)N1Cc2nccn2CC(CN2CCCC2)C1 (stereo not drawn)  -0.449%
84. O=C1CC[C@@H]2[C@@H](CCN2C(=O)c2ccsc2)N1Cc1ccncc1  0.223%
85. Cc1cccc(CN2C(=O)C[C@H]3[C@@H]2CCN3Cc2cccs2)n1  0.507%
86. C[C@@H]1CN(C2CCN(Cc3cnc(-c4cccs4)nc3)CC2)C[C@H](C)O1  1.06%
87. CN(C)C(=O)N1CCn2c(Cn3cccn3)cnc2C1  1.93%
88. Cc1ccc(OCC2CCCN(CC3CCOCC3)C2)cc1 (stereo not drawn)  2.28%
89. CO[C@H]1CCN(S(=O)(=O)c2cccs2)[C@H]1Cc1cccnc1  2.3%
90. COCCc1noc(-c2cn(CCc3ccccc3)nn2)n1  2.44%
91. CO[C@H]1CNC[C@@H]1NC(=O)c1cc(C)nc2c(C)cc(C)cc12  2.49%
92. COc1ncc(-c2nccn2C(C)CCn2cccn2)cn1 (stereo not drawn)  2.54%
93. COc1ccc(N2CCN(C(=O)Cn3nc(C)c(C)c3C)C(C)C2)cc1 (stereo not drawn)  6.36%
94. CCCc1cc(C(=O)N2CC(c3ccncc3)C2)ccn1  8.75%
95. CCCn1c(C)c(CC(=O)NC(C)CO)c2c1CC(C)(C)CC2=O (stereo not drawn)  9.89%
96. CC(NCC(F)(F)F)c1ccc(S(C)(=O)=O)c(F)c1 (stereo not drawn)  12.5%
97. CNc1nc2c(c(C(=O)N3CCCC3)n1)CN(C(=O)C1CCCC1)CC2  15.7%
98. CCCNc1ncc(CN2CCN(C)C(=O)C2C)cn1 (stereo not drawn)  16%
99. Cn1cc(Cl)cc1C(=O)N1CCC2(CCCN(CC3CCC3)C2=O)C1 (stereo not drawn)  18.1%
100. Cc1ccc(C(=O)N2CCc3c(COCC4CC4)cncc3C2)o1  18.4%
101. Cc1cnccc1N1CCCN(C(=O)CCc2n[nH]c(C)c2C)CC1  18.7%
102. COCCn1c(=O)n(Cc2cccc(F)c2F)c2cc(C(=O)O)ccc21  18.8%
103. CC(=O)c1ccc(N2CCCC(CO)(Cc3ccccc3F)C2)nc1 (stereo not drawn)  20.4%
104. Cc1ccc(CN2CC[C@@H]3[C@H]2CCC(=O)N3Cc2ccncc2)s1  21%
105. CCCc1cc(=O)[nH]c(-c2cccc(CN3CCCCCC3)c2)n1  25.8%
106. CC(=O)c1cccc(NCC(=O)NC(N)=O)c1  27.4%
107. COc1cccc(OCC2CCCN(C(=O)c3cnn(C)c3)C2)c1 (stereo not drawn)  27.4%
108. Cc1cncc(C(=O)N2C[C@@H](C(=O)O)[C@H](C(C)C)C2)c1  28.4%
